The term IC50 denotes the concentration at which inhibition is half-maximal.

The results in this text go back to patent US9850225B2, “Compounds useful as immunomodulators” (BRISTOL-MYERS SQUIBB COMPANY, priority 2014, dated 2017).

The experiment addresses PD-1/PD-L1 interaction (PD-1-Ig / PD-L1-His) (Homo sapiens (Human), UniProt Q9NZQ7). Kind of experiment: PD-1/PD-L1 Homogenous Time-Resolved Fluorescence (HTRF) binding assay. Particulars: PD-1/PD-L1 HTRF binding assay, read-out: Range or IC50. In a few lines:
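Human PD-L1-His (10 nM final) was pre-incubated with inhibitor for 15 min, then PD-1-Ig (20 nM final) was added for a further 15 min in dPBS with 0.1% BSA and 0.05% Tween-20. Binding was detected by HTRF using Eu-cryptate anti-Ig (1 nM) and APC anti-His (20 nM).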
For orientation: Time-resolved FRET reads energy transfer from a long-lived donor to a nearby acceptor.

Read-outs that look alike come from different tables or passages of the source.

Chain of PD-1/PD-L1 interaction (PD-1-Ig / PD-L1-His) (Q9NZQ7 other isoform, or with tags, fused parts or gaps): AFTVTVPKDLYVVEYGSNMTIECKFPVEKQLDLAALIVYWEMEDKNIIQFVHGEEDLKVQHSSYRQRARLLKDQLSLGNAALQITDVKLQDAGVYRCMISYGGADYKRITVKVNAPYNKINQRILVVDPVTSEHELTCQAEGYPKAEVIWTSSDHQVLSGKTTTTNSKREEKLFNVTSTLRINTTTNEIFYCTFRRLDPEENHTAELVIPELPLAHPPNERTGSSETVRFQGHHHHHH

As for `CC(=O)NCCNCc1cc(Cl)c(OCc2cccc(-c3ccc4c(c3)OCCO4)c2C)cc1OCc1cncc(Br)c1` [Example 1255, N-(2-(2-((5-bromopyridin-3-yl)methoxy)-5-chloro-4-(3-(2,3-dihydrobenzo[b][1,4]dioxin-6-yl)-2-methylbenzyloxy)benzylamino)ethyl)acetamide], the IC50 (value given as range class) lay in the range of 0.0006 to 0.01 µM.
Regarding `Cc1c(COc2cc(OCc3cncc(C#N)c3)c(CN[C@H](CC(N)=O)C(=O)O)cc2Cl)cccc1-c1ccc2c(c1)OCCO2` [Example 3024, (R)-4-amino-2-((5-chloro-2-((5-cyanopyridin-3-yl)methoxy)-4-((3-(2,3-dihydrobenzo[b][1,4]dioxin-6-yl)-2-methylbenzyl)oxy)benzyl)amino)-4-oxobutanoic acid], the concentration for half-maximal inhibition (IC50) (numeric value) worked out at 0.00554 µM.
Take `Cc1c(COc2ccc(CN[C@H](CO)C(=O)O)c(OCc3ccc(F)c(C#N)c3)c2)cccc1-c1ccccc1` [Example 1332, (R)-2-((2-((3-cyano-4-fluorobenzyl)oxy)-4-((2-methyl-[1,1′-biphenyl]-3-yl)methoxy)benzyl)amino)-3-hydroxypropanoic acid]: where the note is “value given as range class”, the half-maximal inhibitory concentration (IC50) fell in the range of 0.0006 to 0.01 µM.
Still for that read-out and setting: the result for `CC(=O)NCCNCc1ccc(OCc2cccc(-c3ccc4c(c3)OCCO4)c2C)cc1OCc1cc(C#N)ccn1` [Example 1130, N-(2-(2-((4-cyanopyridin-2-yl)methoxy)-4-(3-(2,3-dihydrobenzo[b][1,4]dioxin-6-yl)-2-methylbenzyloxy)benzylamino)ethyl)acetamide] reads 0.01 to 0.1 µM; that for `COc1cc(OCc2cccc(-c3ccc4c(c3)OCCO4)c2C)cc(OCc2cccc(C#N)c2)c1CNC[C@@H](O)CC(=O)O` [Example 1140, (S)-4-((2-((3-cyanobenzyl)oxy)-4-((3-(2,3-dihydrobenzo[b][1,4]dioxin-6-yl)-2-methylbenzyl)oxy)-6-methoxybenzyl)amino)-3-hydroxybutanoic acid], 0.0006 to 0.01 µM; that for `Cc1c(COc2cc(OCc3cncc(C#N)c3)c(CN[C@@H](CCC(=O)O)C(=O)O)cc2Cl)cccc1-c1ccc2c(c1)OCCO2` [Example 2012, (S)-2-((5-chloro-2-((5-cyanopyridin-3-yl)methoxy)-4-((3-(2,3-dihydrobenzo[b][1,4]dioxin-6-yl)-2-methylbenzyl)oxy)benzyl)amino)pentanedioic acid], 0.0006 to 0.01 µM.
`Cc1c(COc2ccc(CN[C@](C)(CO)C(=O)O)c(OCc3cccc(C#N)c3)c2)cccc1-c1ccccc1` [Example 1023, (R)-2-((2-((3-cyanobenzyl)oxy)-4-((2-methyl-[1,1′-biphenyl]-3-yl)methoxy)benzyl)amino)-3-hydroxy-2-methylpropanoic acid]: the IC50 (value given as range class) fell in the range of 0.0006 to 0.01 µM.
Turning to `Cc1c(COc2cc(OCc3cccc(C#N)c3)c(CNC(Cc3c[nH]c4ccccc34)C(=O)O)cc2Cl)cccc1-c1ccc2c(c1)OCCO2` (centres unmarked) [Example 1192, 2-((5-chloro-2-((3-cyanobenzyl)oxy)-4-((3-(2,3-dihydrobenzo[b][1,4]dioxin-6-yl)-2-methylbenzyl)oxy)benzyl)amino)-3-(1H-indol-3-yl)propanoic acid], for the setting “value given as range class”, the half-inhibitory concentration (IC50) was 0.1 to 20 µM.
`CC(=O)NCCNCc1ccc(OCc2cccc(-c3ccccc3)c2C)cc1OCc1nccc2ccccc12` [Example 1118, N-(2-((2-(isoquinolin-1-ylmethoxy)-4-((2-methyl-[1,1′-biphenyl]-3-yl)methoxy)benzyl)amino)ethyl)acetamide]: the IC50 (value given as range class) lay in the range of 0.1 to 20 µM.
For the compound `Cc1c(COc2ccc(CN[C@](C)(CO)C(=O)O)c(OCc3cc(C#N)ccn3)c2)cccc1-c1ccc2c(c1)OCCO2` [Example 1131, (R)-2-(2-((4-cyanopyridin-2-yl)methoxy)-4-(3-(2,3-dihydrobenzo[b][1,4]dioxin-6-yl)-2-methylbenzyloxy)benzylamino)-3-hydroxy-2-methylpropanoic acid], the IC50 (value given as range class) fell in the range of 0.0006 to 0.01 µM.
Same read-out and setting: as for `Cc1cc(CN[C@](C)(CO)C(=O)O)c(OCc2cccnc2)cc1OCc1cccc(-c2ccc3c(c2)OCCO3)c1C` [Example 1281, (R)-2-((4-((3-(2,3-dihydrobenzo[b][1,4]dioxin-6-yl)-2-methylbenzyl)oxy)-5-methyl-2-(pyridin-3-ylmethoxy)benzyl)amino)-3-hydroxy-2-methylpropanoic acid], the figure is 0.0006 to 0.01 µM.
`CC(=O)NCCNCc1ccc(OCc2cccc(-c3ccccc3)c2C)cc1OCc1ccccc1` [Example 1024, N-(2-((2-(benzyloxy)-4-((2-methyl-[1,1′-biphenyl]-3-yl)methoxy)benzyl)amino)ethyl)acetamide]: the IC50 (value given as range class) was 0.1 to 20 µM.
Take `CC[C@H](NCc1cc(Cl)c(OCc2cccc(-c3ccc4c(c3)OCCO4)c2C)cc1OCc1cccc(C#N)c1)C(=O)O` [Example 1201, (S)-2-((5-chloro-2-((3-cyanobenzyl)oxy)-4-((3-(2,3-dihydrobenzo[b][1,4]dioxin-6-yl)-2-methylbenzyl)oxy)benzyl)amino)butanoic acid]: the IC50 (value given as range class) is 0.0006 to 0.01 µM.
For the compound `Cc1c(COc2ccc(CN[C@@H](C(=O)O)[C@@H](C)O)c(OCc3cccc(C#N)c3)c2)cccc1-c1ccccc1` [Example 1013, (2R,3R)-2-((2-((3-cyanobenzyl)oxy)-4-((2-methyl-[1,1′-biphenyl]-3-yl)methoxy)benzyl)amino)-3-hydroxybutanoic acid], the 50% inhibitory concentration (IC50) (value given as range class) was 0.0006 to 0.01 µM.
With `CC(=O)NCCNCc1ccc(OCc2cccc(-c3ccccc3)c2C)cc1OCc1cc(F)cc(C(F)(F)F)c1` [Example 1081, N-(2-((2-((3-fluoro-5-(trifluoromethyl)benzyl)oxy)-4-((2-methyl-[1,1′-biphenyl]-3-yl)methoxy)benzyl)amino)ethyl)acetamide], where the note is “value given as range class”, the half-maximal inhibitory concentration (IC50) lay within 0.1 to 20 µM.
Regarding `CC(=O)NCCNCc1ccc(OCc2cccc(-c3ccccc3)c2C)cc1OCc1ccc(Cl)cc1` [Example 1068, N-(2-((2-((4-chlorobenzyl)oxy)-4-((2-methyl-[1,1′-biphenyl]-3-yl)methoxy)benzyl)amino)ethyl)acetamide], the IC50 (value given as range class) was in the range of 0.1 to 20 µM.
On to `CCCOc1cc(OCc2cccc(-c3ccccc3)c2C)ccc1CNCCNC(C)=O` [Example 1027, N-(2-((4-((2-methyl-[1,1′-biphenyl]-3-yl)methoxy)-2-propoxybenzyl)amino)ethyl)acetamide], for which the half-maximal inhibitory concentration (IC50) (value given as range class) was 0.1 to 20 µM.
On to `Cc1cc(CNCCO)c(OCc2cncc(C#N)c2)cc1OCc1cccc(-c2ccc3c(c2)OCCO3)c1Cl` [Example 1151, 5-((5-(2-chloro-3-(2,3-dihydrobenzo[b][1,4]dioxin-6-yl)benzyloxy)-2-((2-hydroxyethylamino)methyl)-4-methylphenoxy)methyl)nicotinonitrile], for which the concentration for half-maximal inhibition (IC50) (value given as range class) was 0.0006 to 0.01 µM.
On the same count and under the same terms, the result for `COc1cc(COc2cc(OCc3cccc(-c4ccc5c(c4)OCCO5)c3C)c(Cl)cc2CO)ccn1` [Example 3016, (5-chloro-4-{[3-(2,3-dihydro-1,4-benzodioxin-6-yl)-2-methylphenyl]methoxy}-2-[(2-methoxypyridin-4-yl)methoxy]phenyl)methanol] reads 0.1 to 20 µM; that for `CC(=O)NCCNCc1cc(Br)c(OCc2cccc(-c3ccc4c(c3)OCCO4)c2C)cc1OCc1cncc(C#N)c1` [Example 1317, N-(2-(5-bromo-2-((5-cyanopyridin-3-yl)methoxy)-4-(3-(2,3-dihydrobenzo[b][1,4]dioxin-6-yl)-2-methylbenzyloxy)benzylamino)ethyl)acetamide], 0.0006 to 0.01 µM.
